Source: paper PMC5354814, “In silico and in vitro drug screening identifies new therapeutic approaches for Ewing sarcoma” (Oncotarget, 2016)

Experiments:
[1] = system: A673 cells; test: In vivo xenograft mouse model
Experimental: To assess the antitumor activity of auranofin (using an alternative delivery approach), ganetespib and the combination treatments in vivo, we generated a xenograft nude mouse model by injecting A673 cells intramuscularly proximal to the tibia. Based on the dose tolerance and pharmacokinetic studies described above, we administered auranofin at a tolerable daily i.p. dose that achieved adequate systemic drug exposure. Auranofin was administered with a dose of 12 mg/kg through an i.p. injection once a day for 5 days per week, and ganetespib was administered with a dose of 150 mg/kg through an i.v. injection once weekly. Mice that grew palpable tumors were randomized into four groups: vehicle, auranofin-only, ganetespib-only, and the combination.
The guidelines adopted by the Institutional Animal Care and Use Committee of the University of Kansas Medical Center (KUMC-IACUC) were followed in all performed procedures. All experimental protocols were approved by KUMC-IACUC. Homozygous athymic nude (Foxn1nu/Foxn1nu) female mice at the age of 4-weeks were purchased from Jackson Laboratories. After one week, one million A673 cells in PBS (pH = 7.3) were injected into mice. The cells were injected intramuscularly proximal to the tibia and treatment started after 15 days of inoculation. Mice developing palpable tumors were divided into 4 arms and treated for up to 18 days: vehicle (20% Cremophor RH40 and 80% D5W iv and 0.5% HPMC K4M ip), auranofin (12 mg/kg i.p. injection 5 days per week), ganetespib (150 mg/kg i.v. injection once weekly), as well as auranofin and ganetespib combined. Mice were evaluated for overall health and weighed every week. When tumor size impeded mobility, mice were sacrificed and necropsies were performed. Tumors were then dissected, measured and processed for analysis. The liver, kidneys, and spleen were also snap frozen in liquid nitrogen or fixed in 10% neutral buffered formalin and paraffin embedded for toxicity studies. Tissues were then subjected to hematoxylin and eosin (H&E) staining and immunohistochemical staining. […]

[2] = system: mouse L929 fibroblasts; design: method as in ref 19 (a number printed in a supplementary file, which may have a reference list of its own: not looked up in the article's list); settings: 1µM auranofin; cited from earlier work
[3] = design: method as in ref 19 (a number printed in a supplementary file, which may have a reference list of its own: not looked up in the article's list); settings: dogs, cited from earlier work
[4] = Formulation and PK studies of auranofin (blood gold, ICPMS); assay type: in vivo, BALB/c mice
Experimental: Ridaura® (auranofin) is typically delivered orally (capsules containing 3 mg auranofin) and has been repurposed in several clinical trials with limited results (i.e., clinicaltrials.gov identifier: NCT01419691, NCT02126527, and NCT02126527). […] Additionally, the ability to increase the dose of auranofin to achieve higher blood concentrations of gold was limited by dose-limiting gastrointestinal side effects (diarrhea, loose stools, nausea, vomiting and abdominal cramps). For our studies we dosed BALB/c mice orally at 10 mg/Kg with different formulations of auranofin suspensions prepared in 0.5% hydroxypropyl methyl cellulose to help assure dose uniformity. We compared the ground contents of Ridaura® capsules, the ground pure auranofin drug substance, auranofin suspension containing 0.5% sodium lauryl sulfate (a surfactant), auranofin suspensions with the pH adjusted to pH = 1, 4 and 7, auranofin suspension dosed into fasted versus high fat diet mice and finally a solution of auranofin prepared in 5% dimethyl sulfoxide (DMSO) with a pH = 1. Pharmacokinetic studies were conducted on all of these formulation variations. Blood samples from 3 mice at each time point (0, 1, 2, 4, 8, 12, 24, 48 and 96 hours) and the whole blood was assayed by ICPMS for gold.
We additionally studied dose accumulation of the gold by comparing a formulation of Ridaura® capsule contents as described above and dosing at 10 mg/Kg single dose versus dosing the mice once daily for 5 days. The PK study compared the gold content in whole blood samples as described above for the single dose versus the gold content in whole blood samples from the multidose arm with whole blood collected at the end of each 24 hour dosing period before the next dose (24, 48, 72, 96 and 120 hours) and then whole blood collected every 24 hours for 5 additional days (144, 168, 192, 216 and 240 hours) and assayed for gold content. The results of these formulation and PK studies are shown in Supplementary Table S2.
These findings led us to develop and assess injectable (i.v. and i.p.) formulations of auranofin. By defining maximum tolerated dose (MTD) following i.v. and i.p. administration of solution and suspension formulations of auranofin, our intent was to evaluate auranofin alone and in combination with ganetespib at MTD in mouse xenograft studies using the more convenient i.p. route of administration. Following administration of the solution formulation of auranofin i.v. and i.p., the maximum tolerated dose was estimated at 1 mg/kg and 6 mg/kg, respectively. Following a single i.p. suspension dose of auranofin, the maximum tolerated dose was 16 mg/kg. This dose was reduced to 12 mg/kg and dose tolerance was evaluated after 5 daily doses of auranofin suspension i.p. to determine the effects of the accumulation of gold in the blood due to the slow elimination of gold. Based on the i.p. suspension dose tolerance studies, the auranofin suspension formulation and dose level of 12 mg/kg was selected for evaluation in xenograft mouse studies.

[5] = system: Saccharomyces; design: method as in ref 18, ref 19; settings: cited from earlier work
[6] = design: method as in ref 18, ref 19; settings: cited from earlier work
[7] = design: method as in ref 19 (a number printed in a supplementary file, which may have a reference list of its own: not looked up in the article's list); settings: 2.5 µg/mL; cited from earlier work
[8] = system: mouse lymphoma; design: method as in ref 18, ref 19; settings: 313 to 700 ng/mL, in the presence of a rat liver microsomal preparation; cited from earlier work
[9] = design: method as in ref 19 (a number printed in a supplementary file, which may have a reference list of its own: not looked up in the article's list); settings: rats, 2 - 40 mg auranofin/kg p.o.; cited from earlier work
[10] = system: BALB/3T3 cell; design: method as in ref 18, ref 19; settings: cited from earlier work
[11] = Suspension, single 10 mg/kg Oral

In the case of `CC(=O)OC[C@H]1O[C@@H]([S-])[C@H](OC(C)=O)[C@@H](OC(C)=O)[C@@H]1OC(C)=O.CCP(CC)CC.[Au+]` [Auranofin, auranofin], the “survival rate versus control group” value ([1]; auranofin 12 mg/kg i.p. 5 days per week, ganetespib 150 mg/kg i.v. once weekly, p < 0.05) is listed as “significantly increased the survival rate”, the “toxicity or adverse effects in xenograft study” value ([1]; auranofin 12 mg/kg i.p., ganetespib 150 mg/kg i.v.) is listed as “did not show any noticeable toxicity or adverse effects” and the ADCC [2] is listed as “inhibited”. The “chronic toxicity, anemia in middle and high dose groups” value ([3]; oral 0.6, 1.2 and 2.4-6.0 mg/kg/day, 12 months) was “intravascular hemolytic anemia”, the subacute toxicity findings ([3]; oral 1.8, 3.6-7.2 and 6.9-18.0 mg/kg/day, 3 months) was “Dose-related emesis, diarrhea, decreased food consumption” and the Cmax ([4]; Solution, five daily 4 mg/kg IP) was 10384 ng/mL. The “AUC (0 to ∞)” value ([4]; Solution, single 4 mg/kg IP) was 210.336 µg·h/mL, the Cmax ([4]; Solution, single 4 mg/kg IP) was 4071 ng/mL and the “Half Life” value ([4]; Solution, single 4 mg/kg IP) was 29.7 h. The Tmax ([4]; Solution, single 4 mg/kg IP) was 1 h, the Cmax ([4]; Suspension, five daily 10 mg/kg Oral) was 5780 ng/mL and the “AUC (0 to ∞)” value [4, 11] was 187.7 µg·h/mL. The Cmax [4, 11] was 3680 ng/mL, the “Half Life” value [4, 11] was 28.4 h and the Tmax [4, 11] was 24 h. The “AUC (0 to ∞)” value ([4]; Suspension, single 12 mg/kg IP) was 550.846 µg·h/mL, the Cmax ([4]; Suspension, single 12 mg/kg IP) was 13068 ng/mL and the “Half Life” value ([4]; Suspension, single 12 mg/kg IP) was 26.4 h. For the same molecule, the Tmax ([4]; Suspension, single 12 mg/kg IP) was 1 h, the “effect of oral formulation variations on amount of gold absorbed” value ([4]; oral 10 mg/kg, various suspensions and a solution) was “unable to alter the amount of auranofin (gold) absorbed” and the mutation effects [5] was “no m utation effects”. For the same molecule, the mutation effects [6] was “no m utation effects”, the “pokeweed mitogen-induced immunoglobulin production” value [7] was “inhibited” and the mutation frequencies [8] was “induced increases in the mutation frequencies”. The antidiuretic effect [9] was “slight antidiuretic effect” and the mutation effects [10] was “no m utation effects”.
